Experimental data taken from PMC11457795 (Cell chemical biology, 2024).

Biological target: PfMAGL (Plasmodium falciparum, UniProt Q8IJ22)
Experiment: fluorogenic 4-methylumbelliferyl caprylate hydrolysis assay, […] min preincubation
Format: biochemical

Molecule `C#CCCCCP(=O)(OCC)Oc1ccc(S(=O)(=O)F)cc1` (racemic) [compound 2, ethyl (4-(fluorosulfonyl)phenyl) hex-5-yn-1-ylphosphonate] has an IC50 of 20 nM.
